Tested on: Plasmodium berghei
Experiment: Luciferase/luciferin-expressing antifolate-resistant parasites were used to infect a culture of HepG2 cells that were pre-incubated with compounds. Infected hepatocytes emit light due to the luciferase reaction. Assay results are presented as the percent inhibition of light emission compared to control. […]
Type: functional
Conditions: sporozoite; for IC90: read-out: LUCIFERASE INFECTION ASSAY - IC90

| Structure (SMILES) | IC90 | further results |
| --- | --- | --- |
| CN(C)c1ccc(C2CNC(c3ccc(Cl)c([N+](=O)[O-])c3)c3[nH]c4ccccc4c32)cc1 (configuration not stated) | > 10 µM | IC50 (PBLUC_HILL_SLOPE 1.52, PBLUC_R_SQUARED 0.0896, read-out: LUCIFERASE INFECTION ASSAY - IC50): > 10 µM |
| COc1cc(C(=O)Nc2cccc(-n3cnnn3)c2)cc(OC)c1OC | > 9.29 µM | IC50 (PBLUC_HILL_SLOPE 1.51, PBLUC_R_SQUARED 0.135, read-out: LUCIFERASE INFECTION ASSAY - IC50): 5.06 µM |
| CC(C)c1ccc(NC(=O)Nc2nc(C(N)COCc3ccccc3)cs2)cc1 (configuration not stated) | > 8.04 µM | IC50 (PBLUC_HILL_SLOPE 1.46, PBLUC_R_SQUARED 0.665, read-out: LUCIFERASE INFECTION ASSAY - IC50): 4.91 µM |
| O=C(Cn1cc(C(=O)c2ccccc2)c2ccccc21)Nc1ccc(F)cc1 | > 8.86 µM | IC50 (PBLUC_HILL_SLOPE 1.46, PBLUC_R_SQUARED 0.555, read-out: LUCIFERASE INFECTION ASSAY - IC50): 3.31 µM |
| N#CC1(C#N)C2C=CC(C2)C1(C#N)C#N | > 17 µM | IC50 (PBLUC_HILL_SLOPE 1.54, PBLUC_R_SQUARED 0.0374, read-out: LUCIFERASE INFECTION ASSAY - IC50): > 17 µM |
| Fc1ccc(Nc2nccc3c2ncn3Cc2ccccc2)cc1Cl | > 10 µM | IC50 (PBLUC_HILL_SLOPE 1.48, PBLUC_R_SQUARED 0.272, read-out: LUCIFERASE INFECTION ASSAY - IC50): 3.67 µM |
| Cn1nnnc1SCC(=O)Nc1ccc(C(=O)Nc2ncccc2O)cc1 | 6.88 µM | IC50 (PBLUC_HILL_SLOPE 1.53, PBLUC_R_SQUARED 0.512, read-out: LUCIFERASE INFECTION ASSAY - IC50): 1.64 µM |
| CSC(=NNc1ccc([N+](=O)[O-])cc1)NC(=O)c1c(Cl)cccc1Cl | > 8.27 µM | IC50 (PBLUC_HILL_SLOPE 1.5, PBLUC_R_SQUARED 0.194, read-out: LUCIFERASE INFECTION ASSAY - IC50): 7.91 µM |
| Cc1ccc(OCc2csc(-c3cnn(C)c3)n2)c2c1C(C)CC2=O (configuration not stated) | > 10 µM | IC50 (PBLUC_HILL_SLOPE 1.52, PBLUC_R_SQUARED 0.607, read-out: LUCIFERASE INFECTION ASSAY - IC50): 3.47 µM |
| COc1ccc2c(c1)CCCC21NC(=O)N(Cc2nc3ccccc3s2)C1=O (configuration not stated) | 8.43 µM | IC50 (PBLUC_HILL_SLOPE 1.51, PBLUC_R_SQUARED 0.684, read-out: LUCIFERASE INFECTION ASSAY - IC50): 1.97 µM |
| O=C(/C=C/c1ccccc1)Nc1ccc(C23CC4CC(CC(O)(C4)C2)C3)cc1 | 9.39 µM | IC50 (PBLUC_HILL_SLOPE 1.46, PBLUC_R_SQUARED 0.646, read-out: LUCIFERASE INFECTION ASSAY - IC50): 2.09 µM |
| CC(C)c1ccc(C2C3CCc4ccccc4C3=NN2CCO)cc1 (configuration not stated) | 1.32 µM | IC50 (PBLUC_HILL_SLOPE 1.49, PBLUC_R_SQUARED 0.685, read-out: LUCIFERASE INFECTION ASSAY - IC50): 0.301 µM |
| CC1(C)CS/C(=N\Cc2ccccc2)N1C(=O)C(c1ccccc1)c1ccccc1 | > 10 µM | IC50 (PBLUC_HILL_SLOPE 1.51, PBLUC_R_SQUARED 0.0539, read-out: LUCIFERASE INFECTION ASSAY - IC50): > 10 µM |
| O=C(CSc1nnc(/C=C/c2ccc(F)cc2)[nH]1)N(c1ccccc1)C1CCCCC1 | 1.58 µM | IC50 (PBLUC_HILL_SLOPE 1.52, PBLUC_R_SQUARED 0.866, read-out: LUCIFERASE INFECTION ASSAY - IC50): 0.374 µM |
| CNC(=O)c1nn(CC2CCCCC2)c2c1CC(NC1CCCC1)CC2 (configuration not stated) | > 9.2 µM | IC50 (PBLUC_HILL_SLOPE 1.5, PBLUC_R_SQUARED 0.479, read-out: LUCIFERASE INFECTION ASSAY - IC50): 4.38 µM |
| Cc1ccc(NC(=O)COc2ccc3c(c2C)OC(C)(C)CC3)cc1 | > 9.72 µM | IC50 (PBLUC_HILL_SLOPE 1.51, PBLUC_R_SQUARED 0.601, read-out: LUCIFERASE INFECTION ASSAY - IC50): 3.8 µM |
| COc1ccc(O)c(C(=O)c2cc(Cl)c3nc4ccccc4c(=O)n3c2)c1 | 0.494 µM | IC50 (PBLUC_HILL_SLOPE 1.52, PBLUC_R_SQUARED 0.671, read-out: LUCIFERASE INFECTION ASSAY - IC50): 0.117 µM |
| CC(C)(C)c1cc(C(=O)Nc2ccc(Cl)cc2)n(Cc2ccccc2)n1 | > 8.97 µM | IC50 (PBLUC_HILL_SLOPE 1.52, PBLUC_R_SQUARED 0.257, read-out: LUCIFERASE INFECTION ASSAY - IC50): 6.98 µM |
| CCCCNC(=O)COc1ccc2[nH]c3ccccc3c(=O)c2c1 | 8.21 µM | IC50 (PBLUC_HILL_SLOPE 1.51, PBLUC_R_SQUARED 0.724, read-out: LUCIFERASE INFECTION ASSAY - IC50): 1.92 µM |
| CNC(=O)c1ccc2n1CCN(C(=O)OCc1ccccc1)C2C (configuration not stated) | > 10 µM | IC50 (PBLUC_HILL_SLOPE 1.5, PBLUC_R_SQUARED 0.67, read-out: LUCIFERASE INFECTION ASSAY - IC50): 3.17 µM |
| CCCCCCCCSC(=S)c1c(C)[nH]n(-c2ccccc2)c1=O | > 9.1 µM | IC50 (PBLUC_HILL_SLOPE 1.5, PBLUC_R_SQUARED 0.801, read-out: LUCIFERASE INFECTION ASSAY - IC50): > 9.1 µM |

| Structure (SMILES) | IC90 | further results |
| --- | --- | --- |
| Cc1occc1C(=O)Nc1ccc(Cl)c(C(F)(F)F)c1 | > 10 µM | IC50 (PBLUC_HILL_SLOPE 1.47, PBLUC_R_SQUARED 0.656, read-out: LUCIFERASE INFECTION ASSAY - IC50): 6.43 µM |
| O/N=C1/c2ccccc2-c2nnc(-c3cccc(OC(F)(F)F)c3)cc21 | 1.49 µM | IC50 (PBLUC_HILL_SLOPE 1.48, PBLUC_R_SQUARED 0.765, read-out: LUCIFERASE INFECTION ASSAY - IC50): 0.337 µM |
| c1cc[n+](Cc2ccc(-c3nc4ccccc4s3)cc2)cc1 | 7.9 µM | IC50 (PBLUC_HILL_SLOPE 1.53, PBLUC_R_SQUARED 0.36, read-out: LUCIFERASE INFECTION ASSAY - IC50): 1.88 µM |
| COC(=O)C1=CC2C3C(=O)N(c4cc(Cl)cc(Cl)c4)C(=O)C3C1C1C(=O)N(c3cc(Cl)cc(Cl)c3)C(=O)C21 (configuration not stated) | > 5.55 µM | IC50 (PBLUC_HILL_SLOPE 1.53, PBLUC_R_SQUARED 0.573, read-out: LUCIFERASE INFECTION ASSAY - IC50): 2.18 µM |
| O=C(NCc1ccc(Cl)cc1Cl)/C(=C/c1cccs1)n1nnnc1-c1ccccc1 | > 10 µM | IC50 (PBLUC_HILL_SLOPE 1.46, PBLUC_R_SQUARED 0.613, read-out: LUCIFERASE INFECTION ASSAY - IC50): 4.83 µM |
| C=CCc1c(C)nc2c(-c3ccccc3)cnn2c1N1CCN(CCO)CC1 | > 8.74 µM | IC50 (PBLUC_HILL_SLOPE 1.51, PBLUC_R_SQUARED 0.304, read-out: LUCIFERASE INFECTION ASSAY - IC50): 2.98 µM |
| C(=C\c1nc2ccccc2s1)/c1ccc(CN2CCCCC2)cc1 | 2.91 µM | IC50 (PBLUC_HILL_SLOPE 1.51, PBLUC_R_SQUARED 0.817, read-out: LUCIFERASE INFECTION ASSAY - IC50): 0.679 µM |
| CN(C)C(CNC(=O)c1ccc(COc2ccccc2)cc1)Cc1ccccc1 (configuration not stated) | > 10 µM | IC50 (PBLUC_HILL_SLOPE 1.49, PBLUC_R_SQUARED 0.218, read-out: LUCIFERASE INFECTION ASSAY - IC50): 7.64 µM |
| CC(NC(=O)c1cc(-c2ccc3c(c2)OCCO3)nc2c1cnn2C(C)C)c1nc2ccccc2[nH]1 (configuration not stated) | > 10 µM | IC50 (PBLUC_HILL_SLOPE 1.49, PBLUC_R_SQUARED 0.0633, read-out: LUCIFERASE INFECTION ASSAY - IC50): > 10 µM |
| Cc1c(C)n(CCN(C)C)c2ncn3nc(-c4ccccc4O)nc3c12 | > 9.42 µM | IC50 (PBLUC_HILL_SLOPE 1.46, PBLUC_R_SQUARED 0.808, read-out: LUCIFERASE INFECTION ASSAY - IC50): 2.21 µM |
| CCOC(=O)c1c(C)nn(-c2ccc(N3C(=O)C=CC3=O)cc2)c1C | > 9.72 µM | IC50 (PBLUC_HILL_SLOPE 1.49, PBLUC_R_SQUARED 0.186, read-out: LUCIFERASE INFECTION ASSAY - IC50): 6.99 µM |
| c1ccc(OCCCn2c(CN3CCCCC3)nc3ccccc32)cc1 | > 9.44 µM | IC50 (PBLUC_HILL_SLOPE 1.54, PBLUC_R_SQUARED 0.0855, read-out: LUCIFERASE INFECTION ASSAY - IC50): > 9.44 µM |
| O=S(=O)(Oc1cncc(Cl)c1)c1cc(Cl)cc(Cl)c1 | > 9.75 µM | IC50 (PBLUC_HILL_SLOPE 1.51, PBLUC_R_SQUARED 0.362, read-out: LUCIFERASE INFECTION ASSAY - IC50): 8.89 µM |
| CC1(C)CC(=O)C2Sc3ccccc3N=C2C1 (configuration not stated) | > 13.5 µM | IC50 (PBLUC_HILL_SLOPE 1.5, PBLUC_R_SQUARED 0.224, read-out: LUCIFERASE INFECTION ASSAY - IC50): 10.8 µM |
| COc1ccc2c(c1)CCCC21NC(=O)N(Cc2cc(=O)n3cc(C)ccc3n2)C1=O (configuration not stated) | 1.38 µM | IC50 (PBLUC_HILL_SLOPE 1.52, PBLUC_R_SQUARED 0.761, read-out: LUCIFERASE INFECTION ASSAY - IC50): 0.324 µM |
| CC(c1cccc(NC(=O)c2ccccc2)c1)N(C)c1ccc(C#N)cn1 (configuration not stated) | > 10 µM | IC50 (PBLUC_HILL_SLOPE 1.47, PBLUC_R_SQUARED 0.583, read-out: LUCIFERASE INFECTION ASSAY - IC50): 3.04 µM |
| CC(C)c1ccc(OCC(=O)NC2CCCCCCC2)cc1 | > 10.9 µM | IC50 (PBLUC_HILL_SLOPE 1.5, PBLUC_R_SQUARED 0.0788, read-out: LUCIFERASE INFECTION ASSAY - IC50): > 10.9 µM |
| CC(Sc1nc2ccccc2c(=O)n1CCN(C(C)C)C(C)C)C(N)=O (configuration not stated) | > 10 µM | IC50 (PBLUC_HILL_SLOPE 1.51, PBLUC_R_SQUARED 0.457, read-out: LUCIFERASE INFECTION ASSAY - IC50): 6.73 µM |
| CCn1c(=O)n(Cc2ncc(-c3cccc(Cl)c3)o2)c2ccccc21 | > 10 µM | IC50 (PBLUC_HILL_SLOPE 1.51, PBLUC_R_SQUARED 0.651, read-out: LUCIFERASE INFECTION ASSAY - IC50): 5.23 µM |
| COc1ccc(C2Sc3ccccc3N=C3C2=C(O)c2ccccc23)cc1 (configuration not stated) | 1.84 µM | IC50 (PBLUC_HILL_SLOPE 1.48, PBLUC_R_SQUARED 0.746, read-out: LUCIFERASE INFECTION ASSAY - IC50): 0.42 µM |
